Results on 30 molecules are retold here after patent US6967196B1, “Sulfonamide compounds and uses thereof” (Bristol-Myers Squibb Company, priority 1999, dated 2005).

SMILES strings stand for the structures. A value given as a limit tells only on which side of the number the result lay.

The test system of one experiment is amyloid β production in transfected H4 (human neuroglioma) cells stably expressing APP constructs. Briefly: In vitro cell-based assay of inhibitors of amyloid β production (ELISA). The settings on record: Homo sapiens, 16 h, transfected H4 cells expressing APP, approximately 16 hours incubation, amyloid β in medium by ELISA; read-out: ACTIVITY (IC50, inhibition of amyloid β production). An outline of the steps:
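Aβ secreted into the medium was determined by a two-antibody ELISA specific for the Aβ C-terminus, calibrated with known Aβ amounts. Before that, compounds (10-100 μM initially) were left on the cells for roughly 16 hours.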
For the molecule `CCNC(=O)OCC(C)N(c1cc(Cl)ccc1CO)S(=O)(=O)c1ccc(Cl)cc1` (stereo not drawn) [Example 1279], the half-inhibitory concentration (IC50) is at most 25 nM.

Staying with this experiment, now noted: Homo sapiens, 16 h, transfected H4 cells stably expressing APP constructs; approximately 16 hours incubation; amyloid β in medium by ELISA; read-out: ACTIVITY (IC50, inhibition of amyloid β production).
As for `CCCC(c1cc(F)ccc1[C@@H](C)N(c1cc(F)ccc1F)S(=O)(=O)c1ccc(Cl)cc1)N1CCS(=O)(=O)C(C)C1` (stereo partly drawn) [Example 1278, (R)-4-Chloro-N-(2,5-difluorophenyl)-N-[1-[4-fluoro-2-[1-(1,1-dioxo-2-methyl-4-thiomorpholinyl)butyl]phenyl]ethyl]benzenesulfonamide], the IC50 is at most 25 nM.

Still in this experiment, the particulars now being: transfected H4 cells stably expressing APP constructs; approximately 16 hours incubation; amyloid β in medium by ELISA; read-out: ACTIVITY (IC50, inhibition of amyloid β production).
As for `C[C@H](COC(=O)NCCCn1ccnc1)N(c1cc(Cl)ccc1F)S(=O)(=O)c1ccc(Cl)cc1` [Example 1244, 4-Chloro-N-(2-fluoro-5-chlorophenyl)-N-[2-[[N′-[3-(1H-imidazol-1-yl)propylamino]carbonyl]oxy]-(R)-1-methylethyl]benzenesulfonamide], the IC50 is at most 25 nM. On to `C[C@H](COC(=O)NCCc1c[nH]cn1)N(c1cc(Cl)ccc1F)S(=O)(=O)c1ccc(Cl)cc1` [Example 1245, 4-Chloro-N-(2-fluoro-5-chlorophenyl)-N-[2-[[N′-[2-(1H-imidazol-4-yl)ethylamino]carbonyl]oxy]-(R)-1-methylethyl]benzenesulfonamide], for which the IC50 was at most 25 nM. `C[C@H]([C@@H](C)OC(=O)NCCCn1ccnc1)N(c1cc(Cl)ccc1CO)S(=O)(=O)c1ccc(Cl)cc1` [Example 1246, 4-Chloro-N-[5-chloro-2-(hydroxymethyl)phenyl]-N-[2-[[N′-[3-(1H-imidazol-1-yl)propylamino]carbonyl]oxy]-(1R)-(2R)-dimethylethyl]benzenesulfonamide]: the IC50 was at most 25 nM. For `CCN(CCCn1ccnc1)C(=O)OC[C@@H](C)N(c1cc(Cl)ccc1Cl)S(=O)(=O)c1ccc(Cl)cc1` [Example 1247, 4-Chloro-N-(2,5-dichlorophenyl)-N-[2-[[[N′-[3-(1H-imidazol-1-yl)propyl]-N′-ethylamino]carbonyl]oxy]-(R)-1-methylethyl]benzenesulfonamide], the IC50 was at most 25 nM. As to `C[C@H](COC(=O)NCCCn1cnnn1)N(c1cc(Cl)ccc1Cl)S(=O)(=O)c1ccc(Cl)cc1` [Example 1248, 4-Chloro-N-(2,5-dichlorophenyl)-N-[2-[[N′-[3-(1H-tetrazol-1-yl)propylamino]carbonyl]oxy]-(R)-1-methylethyl]benzenesulfonamide], the concentration for half-maximal inhibition (IC50) was at most 25 nM. `C[C@H](COC(=O)N(C)CCO)N(c1cc(Cl)ccc1Cl)S(=O)(=O)c1ccc(Cl)cc1` [Example 1249, 4-Chloro-N-(2,5-dichlorophenyl)-N-[2-[[N′-[2-(hydroxyethyl)-N′-methylamino]carbonyl]oxy]-(R)-1-methylethyl]benzenesulfonamide]: the IC50 is at most 25 nM. Take `C[C@H](COC(=O)N(C)CCCn1ccnc1)N(c1cc(Cl)ccc1Cl)S(=O)(=O)c1ccc(Cl)cc1` [Example 1250, 4-Chloro-N-(2,5-dichlorophenyl)-N-[2-[[[N′-[3-(1H-imidazol-1-yl)propyl]-N′-methylamino]carbonyl]oxy]-(R)-1-methylethyl]benzenesulfonamide]: the IC50 is at most 25 nM. The same measure, in the same setting: under `C[C@H](COC(=O)N(CCCn1ccnc1)CC1CC1)N(c1cc(Cl)ccc1CO)S(=O)(=O)c1ccc(Cl)cc1` [Example 1251, 4-Chloro-N-[5-chloro-2-(hydroxymethyl)phenyl]-N-[2-[[[N′-[3-(1H-imidazol-1-yl)propyl]-N′-cyclopropylmethylamino]carbonyl]oxy]-(R)-1-methylethyl]benzenesulfonamide] stands at most 25 nM; under `CC(C)N(CCCn1ccnc1)C(=O)OC[C@@H](C)N(c1cc(Cl)ccc1CO)S(=O)(=O)c1ccc(Cl)cc1` [Example 1252, 4-Chloro-N-[5-chloro-2-(hydroxymethyl)phenyl]-N-[2-[[[N′-[3-(1H-imidazol-1-yl)propyl]-N′-(2-methylethyl)amino]carbonyl]oxy]-(R)-1-methylethyl]benzenesulfonamide], at most 25 nM. Consider `CC([C@@H]1CCCN1CCS(C)(=O)=O)N(c1cc(Cl)ccc1Cl)S(=O)(=O)c1ccc(Cl)cc1` (stereo partly drawn) [Example 1253], for which the IC50 was in the range of 100 to 500 nM. On the same count and under the same terms, then `CC([C@@H]1CCCN1)N(c1cc(Cl)ccc1Cl)S(=O)(=O)c1ccc(Cl)cc1` (stereo partly drawn) [Example 1254], with over 500 nM. `COC(=O)[C@@H](NC(=O)CC[C@@H](C)N(c1cc(Cl)ccc1F)S(=O)(=O)c1ccc(Cl)cc1)C(C)C` [Example 1257, (R)-4-Chloro-N-(5-chloro-2-fluorophenyl)-N-[4-[N-(S)-[1-(methoxycarbonyl)-2-methylpropyl]amino]-1-methyl-4-oxobutyl]benzenesulfonamide]: the IC50 lay within 50 to 100 nM. Still for that read-out and setting: under `COC(=O)[C@H](CC(C)C)NC(=O)CCCC[C@@H](C)N(c1cc(Cl)ccc1F)S(=O)(=O)c1ccc(Cl)cc1` [Example 1258, (R)-4-Chloro-N-(5-chloro-2-fluorophenyl)-N-[6-[N-(S)-[1-(methoxycarbonyl)-3-methylbutyl]amino]-1-methyl-6-oxohexyl]benzenesulfonamide] stands at most 25 nM; under `CC(C)C[C@H](NC(=O)CCCC[C@@H](C)N(c1cc(Cl)ccc1F)S(=O)(=O)c1ccc(Cl)cc1)C(=O)O` [Example 1259, (R)-4-Chloro-N-(5-chloro-2-fluorophenyl)-N-[6-[N-(S)-[1-(carboxy)-3-methylbutyl]amino]-1-methyl-6-oxohexyl]benzenesulfonamide], at most 25 nM; under `COC(=O)[C@@H](NC(=O)CCCC[C@@H](C)N(c1cc(Cl)ccc1F)S(=O)(=O)c1ccc(Cl)cc1)C(C)C` [Example 1261, (R)-4-Chloro-N-(5-chloro-2-fluorophenyl)-N-[6-[N-(S)-[1-(methoxycarbonyl)-2-methylpropyl]amino]-1-methyl-6-oxohexyl]benzenesulfonamide], at most 25 nM. Same read-out and setting: then `CC(C)[C@H](NC(=O)CCCC[C@@H](C)N(c1cc(Cl)ccc1F)S(=O)(=O)c1ccc(Cl)cc1)C(=O)O` [Example 1262, (R)-4-Chloro-N-(5-chloro-2-fluorophenyl)-N-[6-[N-(S)-[1-(carboxy)-2-methylpropyl]amino]-1-methyl-6-oxohexyl]benzenesulfonamide], with at most 25 nM. `CC(C)C[C@H](NC(=O)CCCC[C@@H](C)N(c1cc(Cl)ccc1F)S(=O)(=O)c1ccc(Cl)cc1)C(=O)O` [Example 1263, (R)-4-Chloro-N-(5-chloro-2-fluorophenyl)-N-[6-[N-(S)-[1-(carboxy)-3-methylbutyl]amino]-1-methyl-6-oxohexyl]benzenesulfonamide]: the IC50 fell in the range of 25 to 50 nM. On to `COC(=O)[C@@H](NC(=O)CCC[C@@H](C)N(c1cc(Cl)ccc1F)S(=O)(=O)c1ccc(Cl)cc1)C(C)C` [Example 1264, (R)-4-Chloro-N-(5-chloro-2-fluorophenyl)-N-[5-[N-(S)-[1-(methoxycarbonyl)-2-methylpropyl]amino]-1-methyl-6-oxopentyl]benzenesulfonamide], for which the IC50 lay in the range of 100 to 500 nM. Take `COC(=O)[C@H](CC(C)C)NC(=O)CCC[C@@H](C)N(c1cc(Cl)ccc1F)S(=O)(=O)c1ccc(Cl)cc1` [Example 1265, (R)-4-Chloro-N-(5-chloro-2-fluorophenyl)-N-[6-[N-(S)-[1-(methoxycarbonyl)-3-methylbutyl]amino]-1-methyl-5-oxopentyl]benzenesulfonamide]: the IC50 lay within 50 to 100 nM. On to `COC(=O)[C@H](NC(=O)CCC[C@@H](C)N(c1cc(Cl)ccc1F)S(=O)(=O)c1ccc(Cl)cc1)C(C)C` [Example 1266, (R)-4-Chloro-N-(5-chloro-2-fluorophenyl)-N-[5-[N-(R)-[1-(methoxycarbonyl)-2-methylpropyl]amino]-1-methyl-5-oxopentyl]benzenesulfonamide], for which the 50% inhibitory concentration (IC50) is at most 25 nM. Take `COC(=O)[C@@H](CC(C)C)NC(=O)CCC[C@@H](C)N(c1cc(Cl)ccc1F)S(=O)(=O)c1ccc(Cl)cc1` [Example 1267, (R)-4-Chloro-N-(5-chloro-2-fluorophenyl)-N-[5-[N-(R)-[1-(methoxycarbonyl)-3-methylbutyl]amino]-1-methyl-5-oxopentyl]benzenesulfonamide]: the half-maximal inhibitory concentration (IC50) fell in the range of 25 to 50 nM. For `CC(C)[C@H](NC(=O)CCC[C@@H](C)N(c1cc(Cl)ccc1F)S(=O)(=O)c1ccc(Cl)cc1)C(=O)O` [Example 1268, (R)-4-Chloro-N-(5-chloro-2-fluorophenyl)-N-[5-[N-(S)-[1-(carboxy)-2-methylpropyl]amino]-1-methyl-5-oxopentyl]benzenesulfonamide], the IC50 is 100 to 500 nM. Regarding `CC(C)[C@@H](NC(=O)CCC[C@@H](C)N(c1cc(Cl)ccc1F)S(=O)(=O)c1ccc(Cl)cc1)C(=O)O` [Example 1270, (R)-4-Chloro-N-(5-chloro-2-fluorophenyl)-N-[5-[N-(R)-[1-(carboxy)-2-methylpropyl]amino]-1-methyl-5-oxopentyl]benzenesulfonamide], the IC50 is 25 to 50 nM. On to `CC(C)C[C@@H](NC(=O)CCC[C@@H](C)N(c1cc(Cl)ccc1F)S(=O)(=O)c1ccc(Cl)cc1)C(=O)O` [Example 1271, (R)-4-Chloro-N-(5-chloro-2-fluorophenyl)-N-[5-[N-(R)-[1-(carboxy)-3-methylbutyl]amino]-1-methyl-5-oxopentyl]benzenesulfonamide], for which the IC50 lay in the range of 50 to 100 nM. Turning to `CC1CN(C(=O)CCCC[C@@H](C)N(c2cc(Cl)ccc2F)S(=O)(=O)c2ccc(Cl)cc2)CCS1(=O)=O` (stereo partly drawn) [Example 1272], the IC50 was at most 25 nM. Regarding `CC1CS(=O)(=O)CCN1C(=O)CCCC[C@@H](C)N(c1cc(Cl)ccc1F)S(=O)(=O)c1ccc(Cl)cc1` (stereo partly drawn) [Example 1273], the half-inhibitory concentration (IC50) was at most 25 nM. Still for that read-out and setting: under `CC1CN(CCCCC[C@@H](C)N(c2cc(Cl)ccc2F)S(=O)(=O)c2ccc(Cl)cc2)CCS1(=O)=O` (stereo partly drawn) [Example 1274] stands at most 25 nM. As to `CC1CS(=O)(=O)CCN1CCCCC[C@@H](C)N(c1cc(Cl)ccc1F)S(=O)(=O)c1ccc(Cl)cc1` (stereo partly drawn) [Example 1275], the concentration for half-maximal inhibition (IC50) is at most 25 nM.
